In the NIST ThermoML archive (doi:10.1021/acs.jced.8b00222) one finds mass density and refractive index data, which are given here for four molecules.

Numbers after ± are expanded uncertainties.

For series [1] the following is noted: 293.15 K; 101.33 kPa; Liquid; Pycnometric method.
Series [2] is described as follows: refractive index (Na D-line) (dimensionless). Conditions: 293.15 K; 101.33 kPa; Liquid; Standard Abbe refractometry.

`O=Cc1ccco1` [2-furaldehyde]: in series [1], the mass density was determined as 1159.16 ± 2.2 kg/m3. Besides, the refractive index in series [2] is on record as 1.5259 ± 0.0008.

For the molecule `CC(=O)O` [acetic acid], the mass density in series [1] was found to be 1048.93 ± 2.2 kg/m3. The refractive index in series [2] is on record as 1.3717 ± 0.0008.

On to `COC1CCCC1` [methoxycyclopentane], for which the mass density in series [1] is recorded as 860.13 ± 2.1 kg/m3. For the same molecule, in series [2], the refractive index came out at 1.4187 ± 0.0008.

`O` [water]: the refractive index in series [2] was 1.3334 ± 0.0005.
